Measured values: PubChem BioAssay AID1963875 (Molecular Pharmacology Branch, DTP, NCI, 2024)

Test system: KRAS-mutant PDC complex spheroid viability
Test: Anticancer human tumor 186277-243-T-J2-PDC patient-derived colon adenocarcinoma cell line growth inhibition [KRAS2]
Settings: for IC50: curve of first compound; for viability, T/C: stronger effect = lower value
Method in brief: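 Combination screen of spheroid viability in tumor-cell co-cultures with endothelial (HUVEC) and mesenchymal stem cell stroma. Each agent was tested in half-log dilutions, topping at clinical Cmax or at 10 microM without a known Cmax.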

[1] = second compound 0.0316 µM, first compound 0.0316 µM
[2] = second compound 0.0316 µM, first compound 0.1 µM
[3] = second compound 0.0316 µM, first compound 0.316 µM
[4] = second compound 0.0316 µM, first compound 1 µM
[5] = second compound 0.0316 µM, first compound 3.16 µM
[6] = second compound 0.0316 µM, first compound 10 µM
[7] = second compound 0.1 µM, first compound 0.0316 µM
[8] = second compound 0.1 µM, first compound 0.1 µM
[9] = second compound 0.1 µM, first compound 0.316 µM
[10] = second compound 0.1 µM, first compound 1 µM
[11] = second compound 0.1 µM, first compound 3.16 µM
[12] = second compound 0.1 µM, first compound 10 µM
[13] = second compound 0.316 µM, first compound 0.0316 µM
[14] = second compound 0.316 µM, first compound 0.1 µM
[15] = second compound 0.316 µM, first compound 0.316 µM
[16] = second compound 0.316 µM, first compound 1 µM
[17] = second compound 0.316 µM, first compound 3.16 µM
[18] = second compound 0.316 µM, first compound 10 µM
[19] = second compound 1 µM, first compound 0.0316 µM
[20] = second compound 1 µM, first compound 0.1 µM
[21] = second compound 1 µM, first compound 0.316 µM
[22] = second compound 1 µM, first compound 1 µM
[23] = second compound 1 µM, first compound 3.16 µM
[24] = second compound 1 µM, first compound 10 µM
[25] = second compound 3.16 µM, first compound 0.0316 µM
[26] = second compound 3.16 µM, first compound 0.1 µM
[27] = second compound 3.16 µM, first compound 0.316 µM
[28] = second compound 3.16 µM, first compound 1 µM
[29] = second compound 3.16 µM, first compound 3.16 µM
[30] = second compound 3.16 µM, first compound 10 µM
[31] = second compound 0.0316 µM, first compound 0.01 µM
[32] = second compound 0.1 µM, first compound 0.01 µM
[33] = second compound 0.316 µM, first compound 0.01 µM
[34] = second compound 1 µM, first compound 0.01 µM
[35] = second compound 3.16 µM, first compound 0.01 µM
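For viability, T/C in this document: viability read after seven days of compound exposure; 100% = DMSO vehicle-treated spheroids so lower means less viable.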

SMILES	IC50 (second compound 0.0316 µM) [nM]	IC50 (second compound 0.1 µM) [nM]	IC50 (second compound 0.316 µM) [nM]	IC50 (second compound 1 µM) [nM]	IC50 (second compound 3.16 µM) [nM]	viability, T/C [1] [%]	viability, T/C [2] [%]	viability, T/C [3] [%]	viability, T/C [4] [%]	viability, T/C [5] [%]	viability, T/C [7] [%]	viability, T/C [8] [%]	viability, T/C [9] [%]	viability, T/C [10] [%]	viability, T/C [13] [%]	viability, T/C [14] [%]	viability, T/C [19] [%]	viability, T/C [20] [%]	viability, T/C [25] [%]	viability, T/C [26] [%]	other results
CC(C)NCC(C(=O)N1CCN(c2ncnc3c2C(C)CC3O)CC1)c1ccc(Cl)cc1 (stereo not given) + C=CC(=O)N1CCN(c2nc(OCC3CCCN3C)nc3c2CCN(c2cccc4cccc(C)c24)C3)CC1CC#N	691	664	505	248	< 31.6	93.5	105	73.5	37	26.5	113	87.8	72.7	36.5	108	96.3	97.8	104	0.22	0.21	viability, T/C [6]: 11.2%; viability, T/C [11]: 23.6%; viability, T/C [12]: 12.3%; viability, T/C [15]: 62.4%; viability, T/C [16]: 29.9%; viability, T/C [17]: 19.2%; viability, T/C [18]: 8.67%; viability, T/C [21]: 36.3%; viability, T/C [22]: 18.4%; viability, T/C [23]: 9.11%; viability, T/C [24]: 4.64%; viability, T/C [27]: 0.16%; viability, T/C [28]: 0.13%; viability, T/C [29]: 0.12%; viability, T/C [30]: 0.21%
CC1COCCN1c1cc(-c2ccnn2C)c2ccnc(-c3ccn[nH]3)c2n1 (stereo not given) + C=CC(=O)N1CCN(c2nc(OCC3CCCN3C)nc3c2CCN(c2cccc4cccc(C)c24)C3)CC1CC#N	20.3	19.8	19	18.3	< 10	25.8	7.37	5.84	5.53	6.31	24.3	7.71	5.76	5.41	21.6	7.5	12.7	7.23	1.73	1.13	viability, T/C [31]: 88.9%; viability, T/C [32]: 87.5%; viability, T/C [11]: 5.94%; viability, T/C [33]: 85.9%; viability, T/C [15]: 5.3%; viability, T/C [16]: 5.1%; viability, T/C [17]: 5.45%; viability, T/C [34]: 91.2%; viability, T/C [21]: 5.64%; viability, T/C [22]: 4.81%; viability, T/C [23]: 4.49%; viability, T/C [35]: 1.43%; viability, T/C [27]: 1.47%; viability, T/C [28]: 0.61%; viability, T/C [29]: 1.05%
CCNC(=O)CC1N=C(c2ccc(Cl)cc2)c2cc(OC)ccc2-n2c(C)nnc21 (stereo not given) + C=CC(=O)N1CCN(c2nc(OCC3CCCN3C)nc3c2CCN(c2cccc4cccc(C)c24)C3)CC1CC#N	> 10000	> 10000	> 10000	8180	< 31.6	100	102	118	171	151	106	99	113	169	99.9	96.9	97	107	1.32	10.2	viability, T/C [6]: 118%; viability, T/C [11]: 154%; viability, T/C [12]: 116%; viability, T/C [15]: 125%; viability, T/C [16]: 149%; viability, T/C [17]: 130%; viability, T/C [18]: 102%; viability, T/C [21]: 138%; viability, T/C [22]: 138%; viability, T/C [23]: 93.6%; viability, T/C [24]: 40.8%; viability, T/C [27]: 1.62%; viability, T/C [28]: 1.12%; viability, T/C [29]: 0.2%; viability, T/C [30]: 0.24%
Cn1ncnc1[C@H]1c2n[nH]c(=O)c3cc(F)cc(c23)N[C@@H]1c1ccc(F)cc1 + C=CC(=O)N1CCN(c2nc(OCC3CCCN3C)nc3c2CCN(c2cccc4cccc(C)c24)C3)CC1CC#N	> 100	> 100	> 100	> 100	< 0.316	99.2	79.8				98.3	80.5			90.1	79.4	70.8	63.4	0.21	0.27	viability, T/C (second compound 0.0316 µM, first compound 0.000316 µM): 94.5%; viability, T/C (second compound 0.0316 µM, first compound 0.001 µM): 109%; viability, T/C (second compound 0.0316 µM, first compound 0.00316 µM): 100%; viability, T/C [31]: 93.8%; viability, T/C (second compound 0.1 µM, first compound 0.000316 µM): 114%; viability, T/C (second compound 0.1 µM, first compound 0.001 µM): 98.5%; viability, T/C (second compound 0.1 µM, first compound 0.00316 µM): 110%; viability, T/C [32]: 94.9%; viability, T/C (second compound 0.316 µM, first compound 0.000316 µM): 92%; viability, T/C (second compound 0.316 µM, first compound 0.001 µM): 109%; viability, T/C (second compound 0.316 µM, first compound 0.00316 µM): 106%; viability, T/C [33]: 108%; viability, T/C (second compound 1 µM, first compound 0.000316 µM): 103%; viability, T/C (second compound 1 µM, first compound 0.001 µM): 95.4%; viability, T/C (second compound 1 µM, first compound 0.00316 µM): 105%; viability, T/C [34]: 84.8%; viability, T/C (second compound 3.16 µM, first compound 0.000316 µM): 0.19%; viability, T/C (second compound 3.16 µM, first compound 0.001 µM): 0.19%; viability, T/C (second compound 3.16 µM, first compound 0.00316 µM): 0.16%; viability, T/C [35]: 0.18%
